The source of these data is patent US20220372013A2, “PIPERIDINE-2,6-DIONE DERIVATIVES AND CROHN'S DISEASE TREATING” (Tianjin Hemay Pharmaceutical Sci-Tech Co., Ltd, priority 2016, published 2022).

Series [1] concerns DNBS-Induced Inflammatory Bowel Disease Models in Rats. Put plainly: Biological Example 4: DNBS-induced inflammatory bowel disease models in rats. Type of series: in vivo, Wistar rats. As to conditions: 30 mg/Kg i.g. qd × 7; for Adhesion Degree of Colon / Colon weight to length ratio / Ulcer area of colon / inhibition in vivo at 30 mg/kg: day 7; for Body weight: Mean ± SD; for inhibition in vivo at 30 mg/kg: Rattus norvegicus, po, 168 h. The protocol: 102 male Wistar rats were fasted for 72 hours. A 5% glucose injection was administered subcutaneously twice during fasting. 88 rats with normal conditions and moderate body weight were selected from the fasting rats. The animals were randomly divided into 11 groups according to the body weight (see Table 11. Grouped Table).
The animals were anesthetized with ether after 72 hours fasting. A specially made gavage device was slowly inserted into the enteric cavity at 8 cm from the anus. The model control group and each test group were administered with 0.5 mL of 50 mg/mL DNBS in 30% ethanol solution. The normal control group was administered with 0.5 mL of 30% ethanol solution. The animals were inverted in anesthesia for 15 minutes. The day when the model was prepared was day 0 of the experiment. After 4 hours of DNBS induction, the corresponding drug or the corresponding volume of 1% CMC-Na was administered once per day. On day 7 of the experiment, the animals were euthanized to score the colon adhesion degree, measure the length of colon and ulcer area, weigh colon and calculate the colon weight to length ratio.
One-way ANOVA analysis of the length of colon and colon weight per length of rats was performed by SPSS22. Statistical analyses between groups were performed. The adhesion degree was scored. Mann-Whitney U non-parametric test was performed on ulcer area. Statistical analyses between groups were performed.
Calculation Formula of Inhibitory rate of weight increase per length: (Colon weight to length ratio in model group−Colon weight to length ratio in administration group)/(Colon weight to length ratio in model group−Colon weight to length ratio in blank group)

A further series deals with mice. Put plainly: Biological Example 5: acute toxicity experiment of single oral administration in mice. Type of series: in vivo. The note with it: single oral 1000 mg/Kg, Mean ± SD. How it is done:
The mice were fasted one day before the experiment. On the day of the experiment, 6 mice (ICR mice, body weight of 19-21 g, three females and three males) were selected in each experiment group. First of all, one female and one male were selected to orally give 1000 mg/Kg, and observed for 5-10 minutes. If there were no obvious side effects, the remaining 4 animals were orally given the same dose, and observed for 10-15 minutes. If no animal died, the animals were placed in a box to balancedly feed for 7 days. The state was observed and the body weight was recorded daily.
Observation Indexes within 0-15 Minutes after Administration
Activity: restlessness, hyperactivity
Nervous system response: tremor, spasm, convulsion, ataxia, posture abnormality, etc.
Autonomic nerve: exophthalmos, salivation, tears, urination (hematuria), diarrhea, piloerection, breathing, etc.
State of Animal: lethargy, hyperactivity, excitement, hair loss, diarrhea, abnormal behavior, death, etc.

Where [2] appears, read: read-out: Inhibitory rate of colon adhesion.
The mark [3] stands for this setting: read-out: Inhibitory rate of ulcer area of colon.
Setting [4] is: read-out: Inhibitory rate of weight increase per length.

Each structure is given as a SMILES string. Read-outs that look alike come from different tables or passages of the source. Marks after values point to notes of the source that are not given here.

`CNc1cccc2c1C(=O)N(C1CCC(=O)N(CCOC)C1=O)C2=O` (stereo not shown) [Example 2, 4-methylamino-2-(1-(2-methoxyethyl)-2,6-dioxopiperidin-3-yl)isoindolin-1,3-dione]: the “Adhesion Degree of Colon” value in series [1] turned out to be 0.8 ± 0.9 point. The “Colon weight to length ratio” value in series [1] was 120 ± 25 mg/cm. Also, the “Ulcer area of colon” value in series [1] was determined as 1.0 ± 1.6 cm^2. The Body weight in series [1] (Day 1) is recorded as 122.1 ± 4.6 g; in series [1] (Day 2), 123.0 ± 8.4 g; in series [1] (Day 3), 127.1 ± 11.3 g; in series [1] (Day 4), 132.0 ± 12.4 g; in series [1] (Day 5), 143.9 ± 11.9 g; in series [1] (Day 6) it was 141.5 ± 11.5 g. This compound also had a Body weight in series [1] (Day 7) of 162.8 ± 15.8 g. The inhibition in vivo at 30 mg/kg was 66.9% in series [1] (setting [2]), 83.3% in series [1] (setting [3]) and 57.6% in series [1] (setting [4]). Moreover, the “Daily Body Weight” value with mice (Female mice, Day 1) was 19.2 ± 0.5 g; in the series on mice (Female mice, Day 2) it was 22.7 ± 0.6 g; in the series with mice (Female mice, Day 3), 23.2 ± 0.5 g; with mice (Female mice, Day 4) it was 23.2 ± 0.5 g; with mice (Female mice, Day 5), 24.4 ± 0.2 g; in the series on mice (Female mice, Day 6), 24.6 ± 1.1 g. Further, the “Daily Body Weight” value in the series with mice (Female mice, Day 7) stood at 24.5 ± 1.9 g; with mice (Male mice, Day 1), 18.6 ± 0.5 g; in the series on mice (Male mice, Day 2), 24.1 ± 0.4 g; with mice (Male mice, Day 3) it was 24.7 ± 0.2 g; in the series on mice (Male mice, Day 4) it was 24.7 ± 0.2 g; in the series with mice (Male mice, Day 5) it was 26.2 ± 0.6 g. In addition, the “Daily Body Weight” value is recorded as 28.8 ± 0.5 g with mice (Male mice, Day 6) and 29.2 ± 0.8 g in the series with mice (Male mice, Day 7).
Regarding `COCCN1C(=O)CCC(N2C(=O)c3c(F)c(F)c(F)c(F)c3C2=O)C1=O` (stereo not shown) [Example 5, 4,5,6,7-tetrafluoro-2-(1-(2-methoxyethyl)-2,6-dioxopiperidin-3-yl)isoindolin-1,3-dione], the “Adhesion Degree of Colon” value in series [1] worked out at 0.8 ± 0.5 point. Further, the “Colon weight to length ratio” value in series [1] worked out at 99 ± 14 mg/cm. Further, the “Ulcer area of colon” value in series [1] was determined as 0.2 ± 0.5 cm^2. The Body weight turned out to be 126.7 ± 8.9 g in series [1] (Day 1); 125.0 ± 11.0 g in series [1] (Day 2); 126.9 ± 14.0 g in series [1] (Day 3); 133.9 ± 13.3 g in series [1] (Day 4); 141.9 ± 14.9 g in series [1] (Day 5); 146.9 ± 13.9 g in series [1] (Day 6). The Body weight in series [1] (Day 7) is 159.7 ± 14.3 g. Moreover, the values for the inhibition in vivo at 30 mg/kg in series [1] (setting [2]), in series [1] (setting [3]) and in series [1] (setting [4]) were 62.2%, 91.7% and 74.1%, respectively.
With `COCCN1C(=O)CCC(N2C(=O)c3ccc(O)c(N)c3C2=O)C1=O` (stereo not shown) [Example 8, 4-amino-5-hydroxy-2-(1-(2-methoxyethyl)-2,6-dioxopiperidin-3-yl)isoindolin-1,3-dione], the “Adhesion Degree of Colon” value in series [1] came to 0.9 ± 0.6 point. Further, the “Colon weight to length ratio” value in series [1] turned out to be 106 ± 13 mg/cm. Besides, in series [1], the “Ulcer area of colon” value was 0.2 ± 0.4 cm^2. For the same compound, the Body weight is given as 128.6 ± 5.3 g in series [1] (Day 1); 128.2 ± 9.2 g in series [1] (Day 2); 131.6 ± 13.5 g in series [1] (Day 3); 136.8 ± 17.4 g in series [1] (Day 4); 149.1 ± 16.7 g in series [1] (Day 5); 149.7 ± 16.8 g in series [1] (Day 6). The compound further displayed a Body weight in series [1] (Day 7) of 164.1 ± 17.9 g. Moreover, the inhibition in vivo at 30 mg/kg in series [1] (setting [2]) is 52.7%; in series [1] (setting [3]), 91.7%; in series [1] (setting [4]), 65.9%. The “Daily Body Weight” value with mice (Female mice, Day 1) came out at 18.9 ± 0.9 g; with mice (Female mice, Day 2) it was 22.9 ± 0.9 g; with mice (Female mice, Day 3) it was 24.3 ± 0.7 g; in the series on mice (Female mice, Day 4), 24.3 ± 1.1 g; with mice (Female mice, Day 5), 25.3 ± 1.4 g; in the series on mice (Female mice, Day 6) it was 25.8 ± 1.5 g. Besides, the “Daily Body Weight” value is recorded as 26.0 ± 2.5 g in the series on mice (Female mice, Day 7); 18.0 ± 1.3 g in the series on mice (Male mice, Day 1); 23.1 ± 0.9 g in the series on mice (Male mice, Day 2); 24.6 ± 1.0 g in the series with mice (Male mice, Day 3); 25.6 ± 1.7 g in the series with mice (Male mice, Day 4); 27.2 ± 2.2 g with mice (Male mice, Day 5). Also, the “Daily Body Weight” value in the series on mice (Male mice, Day 6) turned out to be 28.2 ± 2.2 g; with mice (Male mice, Day 7), 29.2 ± 2.6 g.
Consider `COCCN1C(=O)CCC(F)(N2C(=O)c3cccc(N)c3C2=O)C1=O` (stereo not shown) [Example 14, 4-amino-2-(1-(2-methoxyethyl)-3-fluoro-2,6-dioxopiperidin-3-yl)isoindolin-1,3-dione], for which, in series [1], the “Adhesion Degree of Colon” value was 0.8 ± 0.5 point. The “Colon weight to length ratio” value in series [1] was 102 ± 18 mg/cm. Further, the “Ulcer area of colon” value in series [1] is recorded as 0.1 ± 0.4# cm^2. Further, the Body weight stood at 126.2 ± 8.7 g in series [1] (Day 1); 125.1 ± 10.5 g in series [1] (Day 2); 129.5 ± 17.8 g in series [1] (Day 3); 136.5 ± 19.7 g in series [1] (Day 4); 146.4 ± 19.4 g in series [1] (Day 5); 147.6 ± 19.9 g in series [1] (Day 6). The same compound displayed a Body weight in series [1] (Day 7) of 165.7 ± 20.8 g. For the same compound, the inhibition in vivo at 30 mg/kg in series [1] (setting [2]) worked out at 62.2%; in series [1] (setting [3]) it was 95.8%; in series [1] (setting [4]), 70.6%.
Turning to `CCOCCN1C(=O)CCC(N2C(=O)c3cccc(F)c3C2=O)C1=O` (stereo not shown) [Example 20, 4-fluoro-2-(1-(2-ethoxyethyl)-2,6-dioxopiperidin-3-yl)isoindolin-1,3-dione], the “Daily Body Weight” value is recorded as 18.7 ± 0.4 g in the series on mice (Female mice, Day 1); 21.6 ± 1.0 g with mice (Female mice, Day 2); 22.1 ± 1.0 g in the series on mice (Female mice, Day 3); 22.1 ± 1.0 g in the series with mice (Female mice, Day 4); 23.0 ± 1.4 g in the series on mice (Female mice, Day 5); 23.3 ± 0.2 g with mice (Female mice, Day 6). In addition, the “Daily Body Weight” value in the series with mice (Female mice, Day 7) turned out to be 23.7 ± 0.8 g; in the series with mice (Male mice, Day 1), 18.8 ± 1.0 g; in the series on mice (Male mice, Day 2), 24.0 ± 1.1 g; in the series on mice (Male mice, Day 3), 25.3 ± 1.2 g; with mice (Male mice, Day 4) it was 25.3 ± 1.2 g; with mice (Male mice, Day 5), 26.7 ± 1.2 g. In addition, the “Daily Body Weight” value in the series with mice (Male mice, Day 6) stood at 29.0 ± 1.1 g; in the series with mice (Male mice, Day 7) it was 29.3 ± 0.7 g.
